Values joined by “and” are separate entries in the source; they are usually repeats but may differ in a detail not shown here. Identical values can stand only once. Inconclusive results and toxic doses are left out. Rule as the data show it: active = T/C of 150% or more; inactive = T/C below 125%.
System: L1210 leukemia ip in BDF1 mice, survival T/C
Assay: NCI In Vivo Anticancer Drug Screen. Data for tumor model L1210 Leukemia (intraperitoneal) in B6D2F1 (BDF1) mice
Settings: endpoint: mean survival time, higher = longer survival
Procedure, shortened: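 Transplanted-tumor mice were given test agent; controls received vehicle only. Survival readings from the two groups were divided (treated over control).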

[1] = dose: 100.0 mg/kg/injection, schedule: Q01DX009 (ip), vehicle: Klucel (hydroxypropylcellulose) (HPC)
[2] = dose: 200.0 mg/kg/injection, schedule: Q01DX009 (ip), vehicle: Klucel (hydroxypropylcellulose) (HPC)
[3] = dose: 400.0 mg/kg/injection, schedule: Q01DX009 (ip), vehicle: Klucel (hydroxypropylcellulose) (HPC)
[4] = dose: 50.0 mg/kg/injection, schedule: Q04DX003 (ip), vehicle: Klucel (hydroxypropylcellulose) (HPC)
[5] = dose: 100.0 mg/kg/injection, schedule: Q04DX003 (ip), vehicle: Klucel (hydroxypropylcellulose) (HPC)
[6] = dose: 100.0 mg/kg/injection, schedule: Q04DX002 (ip), vehicle: Klucel (hydroxypropylcellulose) (HPC)
[7] = dose: 200.0 mg/kg/injection, schedule: Q04DX002 (ip), vehicle: Klucel (hydroxypropylcellulose) (HPC)
[8] = dose: 400.0 mg/kg/injection, schedule: Q04DX002 (ip), vehicle: Klucel (hydroxypropylcellulose) (HPC)
[9] = dose: 100.0 mg/kg/injection, schedule: Q04DX003 (ip), vehicle: other
[10] = dose: 200.0 mg/kg/injection, schedule: Q04DX003 (ip), vehicle: other
[11] = dose: 400.0 mg/kg/injection, schedule: Q04DX003 (ip), vehicle: other
[12] = dose: 32.0 mg/kg/injection, schedule: Q01DX015 (ip), vehicle: carboxymethylcellulose (CMC)
[13] = dose: 50.0 mg/kg/injection, schedule: Q01DX001 (ip), vehicle: saline
[14] = dose: 100.0 mg/kg/injection, schedule: Q01DX001 (ip), vehicle: saline
[15] = dose: 100.0 mg/kg/injection, schedule: Q01DX001 (ip), vehicle: carboxymethylcellulose (CMC)
[16] = dose: 200.0 mg/kg/injection, schedule: Q01DX001 (ip), vehicle: carboxymethylcellulose (CMC)
[17] = dose: 200.0 mg/kg/injection, schedule: Q01DX001 (ip), vehicle: saline
[18] = dose: 200.0 mg/kg/injection, schedule: Q04DX003 (ip), vehicle: Klucel (hydroxypropylcellulose) (HPC)
[19] = dose: 200.0 mg/kg/injection, schedule: Q04DX002 (ip), vehicle: saline with Tween-80
[20] = dose: 400.0 mg/kg/injection, schedule: Q01DX001 (ip), vehicle: saline

Measured: T/C

Cc1ccc(NC(=O)Oc2cc(C)c(Cl)c(C)c2)cc1
inactive: [1] 94 % of control | [2] 97 % of control | [3] 96 % of control

O=C(NCC(S)c1ccc(Cl)cc1)C(F)(F)F (stereo not drawn)
inactive: dose: 200.0 mg/kg/injection, schedule: Q04DX003 (ip), vehicle: saline with Tween-80 88 % of control | dose: 400.0 mg/kg/injection, schedule: Q04DX003 (ip), vehicle: saline with Tween-80 86 % of control

CC(C)(CO)N=Cc1ccccc1O
inactive: dose: 25.0 mg/kg/injection, schedule: Q04DX003 (ip), vehicle: Klucel (hydroxypropylcellulose) (HPC) 96 % of control | [4] 104 % of control | [5] 96 % of control

Cc1cccc(NC(=O)Oc2ccc(-c3ccccc3)cc2)c1
inactive: [1] 98 % of control | [6] 95 % of control | [2] 97 % of control | [7] 88 % of control | [3] 97 % of control | [8] 88 % of control

O=C(O)CCCCCNC(=O)C(F)(F)F
inactive: [9] 94 % of control | [10] 103 % of control | [11] 87 % of control

CCSC1C(OC(C)=O)OC(C(COC(C)=O)OC(C)=O)C1OC(C)=O (stereo not drawn)
inactive: [9] 96 % of control | [10] 96 % of control | [11] 96 % of control

CCCCN(Cc1ccccc1)C(=O)Nc1ccccc1
inactive: [1] 97 % of control | [2] 111 % of control | [3] 100 % of control

CCOC(=O)N(c1ccccc1)c1ccccc1
inactive: [6] 106 % of control | [7] 106 % of control | [8] 98 % of control

O=[N+]([O-])c1ccc(-[n+]2nc(-c3ccccc3)nn2-c2ccc(I)cc2)cc1
inactive: dose: 8.0 mg/kg/injection, schedule: Q01DX015 (ip), vehicle: carboxymethylcellulose (CMC) 96 % of control | dose: 16.0 mg/kg/injection, schedule: Q01DX015 (ip), vehicle: carboxymethylcellulose (CMC) 96 % of control | [12] 103 % of control | dose: 50.0 mg/kg/injection, schedule: Q01DX001 (ip), vehicle: carboxymethylcellulose (CMC) 91 % of control | dose: 64.0 mg/kg/injection, schedule: Q01DX015 (ip), vehicle: carboxymethylcellulose (CMC) 88 % of control

Cc1nc(N)[nH]c(=O)c1CCC(C)C
inactive: [6] 93 % of control | [7] 100 % of control | [8] 96 % of control

[O-]/[N+](=C\c1ccccc1)C(c1ccccc1)c1ccccc1
inactive: dose: 75.0 mg/kg/injection, schedule: Q04DX003 (ip), vehicle: saline 97 % of control | dose: 150.0 mg/kg/injection, schedule: Q04DX003 (ip), vehicle: saline 96 % of control | dose: 300.0 mg/kg/injection, schedule: Q04DX003 (ip), vehicle: saline 89 % of control

CC(O)C(O)C(O)C(O)C(c1ccc(Cl)cc1)c1ccc(Cl)cc1 (stereo not drawn)
inactive: [13] 104 % of control | [14] 98 % of control

Oc1ccc(/C=N/Nc2nnc(N/N=C/c3ccc(O)cc3O)c3ccccc23)c(O)c1
inactive: dose: 2.5 mg/kg/injection, schedule: Q01DX015 (ip), vehicle: carboxymethylcellulose (CMC) 97 % of control | dose: 5.0 mg/kg/injection, schedule: Q01DX009 (ip), vehicle: saline 104 % of control | dose: 5.0 mg/kg/injection, schedule: Q01DX015 (ip), vehicle: carboxymethylcellulose (CMC) 98 % of control | dose: 10.0 mg/kg/injection, schedule: Q01DX009 (ip), vehicle: saline 109 % of control | dose: 10.0 mg/kg/injection, schedule: Q01DX015 (ip), vehicle: carboxymethylcellulose (CMC) 110 % of control | dose: 19.0 mg/kg/injection, schedule: Q01DX015 (ip), vehicle: carboxymethylcellulose (CMC) 120 % of control | dose: 20.0 mg/kg/injection, schedule: Q01DX009 (ip), vehicle: saline 106 % of control | [12] 114 % of control | [13] 98 % of control | [15] 111 % of control | [14] 97 % of control | [16] 121 % of control | [17] 106 % of control | dose: 600.0 mg/kg/injection, schedule: Q01DX001 (ip), vehicle: carboxymethylcellulose (CMC) 117 % of control

NC(=O)NC=O
inactive: dose: 50.0 mg/kg/injection, schedule: Q01DX009 (ip), vehicle: Klucel (hydroxypropylcellulose) (HPC) 96 % of control | [4] 101 % of control | [1] 102 % of control | [5] 105 % of control | [2] 96 % of control | [18] 115 % of control

CC1(C)N=C(N)N=C(N)N1c1ccc(OCCOc2ccc(S(=O)(=O)F)cc2)cc1
inactive: dose: 100.0 mg/kg/injection, schedule: Q01DX001 (ip), vehicle: gum acacia 101 % of control | dose: 200.0 mg/kg/injection, schedule: Q01DX001 (ip), vehicle: gum acacia 98 % of control | dose: 400.0 mg/kg/injection, schedule: Q01DX001 (ip), vehicle: gum acacia 103 % of control

O=C(COc1ccccc1)NC(=S)Nc1ccc(C(=O)O)cc1
inactive: dose: 100.0 mg/kg/injection, schedule: Q01DX001 (ip), vehicle: saline with Tween-80 97 % of control | dose: 100.0 mg/kg/injection, schedule: Q01DX009 (ip), vehicle: saline with Tween-80 102 % of control and 89 % of control | dose: 100.0 mg/kg/injection, schedule: Q04DX002 (ip), vehicle: saline with Tween-80 97 % of control and 104 % of control | dose: 200.0 mg/kg/injection, schedule: Q01DX001 (ip), vehicle: saline with Tween-80 95 % of control | dose: 200.0 mg/kg/injection, schedule: Q01DX009 (ip), vehicle: saline with Tween-80 105 % of control and 86 % of control | [19] 114 % of control and 90 % of control | dose: 400.0 mg/kg/injection, schedule: Q01DX001 (ip), vehicle: saline with Tween-80 101 % of control | dose: 400.0 mg/kg/injection, schedule: Q01DX009 (ip), vehicle: saline with Tween-80 97 % of control and 89 % of control | dose: 400.0 mg/kg/injection, schedule: Q04DX002 (ip), vehicle: saline with Tween-80 107 % of control and 90 % of control

CCCCCCCCCCOc1ccc(C2=C(c3ccccc3)C(=O)C(c3ccccc3)=C2c2ccccc2)cc1
inactive: [15] 100 % of control | [16] 105 % of control | dose: 400.0 mg/kg/injection, schedule: Q01DX001 (ip), vehicle: carboxymethylcellulose (CMC) 94 % of control

Cc1cccc(Cl)c1NC(=O)Nc1cc(Cl)ccc1O
inactive: [1] 107 % of control | [2] 93 % of control | [3] 100 % of control

CC1(C)C2(C(N)=O)C(=O)NC(=O)C12C(=O)O (stereo not drawn)
inactive: [19] 92 % of control

COc1ccccc1CN1CCCN(Cc2ccccc2OC)C1c1ccccc1
inactive: [13] 101 % of control | [14] 109 % of control | [17] 90 % of control | [20] 90 % of control

O=C1CCCCC(=O)OCCC1
inactive: [14] 93 % of control | [17] 98 % of control | [20] 88 % of control

CNCCc1ccccc1
inactive: [14] 107 % of control | [17] 108 % of control

Nc1ncnc2c1ncn2C1OCC(O)C(O)C1O (stereo not drawn)
inactive: [14] 106 % of control | [17] 98 % of control | [20] 91 % of control

Cc1ccccc1NC(=O)NCC(=O)O
inactive: [5] 104 % of control | [18] 98 % of control | dose: 400.0 mg/kg/injection, schedule: Q04DX003 (ip), vehicle: Klucel (hydroxypropylcellulose) (HPC) 93 % of control
